Experimental data reported in ChEMBL document CHEMBL3784947, “Pharmacophore elucidation of phosphoiodyn A - Potent and selective peroxisome proliferator-activated receptor β/δ agonists with neuroprotective activity” (Bioorg Med Chem Lett, 2016).
Active and inactive are the calls of the source. No cut-off for these calls is given here.

Tests used:
PC-12 [1] = assay: Neuroprotective activity against serum starvation-induced apoptosis in rat PC12 cells assessed as cell survival at 1 to 30 uM after 24 hrs by prestoblue staining based fluorescence assay (reference value: 55%); type: functional
PC-12 [2] = assay: Neuroprotective activity against etoposide-induced apoptosis in rat PC12 cells assessed as cell viability at 3 uM preincubated for 4 hrs followed by etoposide addition measured after 48 hrs by prestoblue staining based fluorescence assay (reference value: 52 %); type: functional; conditions: read-out: Activity
[3] = target: T1, Peroxisome proliferator-activated receptor gamma (Homo sapiens) (UniProt P37231); assay: Agonist activity at PPAR gamma (unknown origin) transfected in HEK293 cells at 1 uM after 24 hrs by dual-luciferase reporter gene assay; type: cell-based
T1 sequence (whole entry): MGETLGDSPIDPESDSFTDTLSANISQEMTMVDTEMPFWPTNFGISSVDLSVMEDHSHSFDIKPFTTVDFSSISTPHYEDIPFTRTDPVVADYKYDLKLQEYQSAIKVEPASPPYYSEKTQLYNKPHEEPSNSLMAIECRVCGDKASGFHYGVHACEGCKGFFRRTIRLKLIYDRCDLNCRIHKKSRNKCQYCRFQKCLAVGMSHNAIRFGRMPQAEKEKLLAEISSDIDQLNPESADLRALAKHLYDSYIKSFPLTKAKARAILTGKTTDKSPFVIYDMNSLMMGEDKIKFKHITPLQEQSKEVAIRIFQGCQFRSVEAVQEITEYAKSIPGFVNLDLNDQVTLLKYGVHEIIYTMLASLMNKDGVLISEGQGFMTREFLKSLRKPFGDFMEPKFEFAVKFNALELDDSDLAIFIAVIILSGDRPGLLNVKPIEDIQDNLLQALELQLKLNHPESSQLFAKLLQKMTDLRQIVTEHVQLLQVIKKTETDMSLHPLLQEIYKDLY

PC-12 [4] = assay: Neuroprotective activity against etoposide-induced apoptosis in rat PC12 cells assessed as cell viability at 1 uM preincubated for 4 hrs followed by etoposide addition measured after 48 hrs by prestoblue staining based fluorescence assay; type: functional
[5] = target: T2, Peroxisome proliferator-activated receptor delta (Homo sapiens) (UniProt Q03181); assay: Agonist activity at PPAR delta (unknown origin) transfected in HEK293 cells at 0.001 to 1000 uM after 24 hrs by DR-4 luciferase reporter gene assay; type: cell-based
T2 sequence (whole entry): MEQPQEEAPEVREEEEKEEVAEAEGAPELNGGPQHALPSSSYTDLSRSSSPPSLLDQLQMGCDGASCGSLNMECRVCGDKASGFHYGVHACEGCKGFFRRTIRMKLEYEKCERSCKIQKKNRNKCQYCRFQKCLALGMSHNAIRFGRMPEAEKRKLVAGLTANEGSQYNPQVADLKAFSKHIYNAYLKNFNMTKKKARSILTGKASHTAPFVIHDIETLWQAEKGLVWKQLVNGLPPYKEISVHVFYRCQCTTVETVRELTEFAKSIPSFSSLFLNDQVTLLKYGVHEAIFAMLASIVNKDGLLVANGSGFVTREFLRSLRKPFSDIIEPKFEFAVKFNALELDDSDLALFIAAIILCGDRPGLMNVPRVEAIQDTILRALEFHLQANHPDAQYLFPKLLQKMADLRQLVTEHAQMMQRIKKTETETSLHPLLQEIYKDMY

[6] = target: T3, Peroxisome proliferator-activated receptor alpha (Homo sapiens) (UniProt Q07869); assay: Agonist activity at PPAR alpha (unknown origin) transfected in HEK293 cells at 1 uM after 24 hrs by dual-luciferase reporter gene assay; type: cell-based
T3 sequence (whole entry): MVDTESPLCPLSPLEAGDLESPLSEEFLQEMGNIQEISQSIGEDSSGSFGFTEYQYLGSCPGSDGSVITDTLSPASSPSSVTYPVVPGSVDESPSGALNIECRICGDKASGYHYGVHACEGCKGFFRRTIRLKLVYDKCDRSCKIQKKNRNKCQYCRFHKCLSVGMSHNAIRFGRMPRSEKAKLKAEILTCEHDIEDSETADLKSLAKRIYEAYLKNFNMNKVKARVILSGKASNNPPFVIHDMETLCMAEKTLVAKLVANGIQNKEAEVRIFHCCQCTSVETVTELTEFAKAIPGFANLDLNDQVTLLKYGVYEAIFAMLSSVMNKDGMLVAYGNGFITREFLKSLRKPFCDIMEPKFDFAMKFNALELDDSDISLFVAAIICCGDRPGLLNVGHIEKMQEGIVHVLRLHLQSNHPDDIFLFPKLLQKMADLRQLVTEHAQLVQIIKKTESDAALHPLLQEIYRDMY

[7] = target: T2, Peroxisome proliferator-activated receptor delta (Homo sapiens); assay: Agonist activity at PPAR delta (unknown origin) transfected in HEK293 cells at 0.001 to 1000 uM after 24 hrs by pGL3-Luciferase reporter gene assay; type: cell-based
[8] = target: T2, Peroxisome proliferator-activated receptor delta (Homo sapiens); assay: Agonist activity at PPAR delta (unknown origin) transfected in HEK293 cells at 1 uM after 24 hrs by dual-luciferase reporter gene assay; type: cell-based
[9] = target: T4, Peroxisome proliferator-activated receptor delta (Homo sapiens, UniProt Q03181); assay: Agonist activity at PPAR delta (unknown origin) transfected in HEK293 cells after 24 hrs by dual-luciferase reporter gene assay; type: cell-based
T4 sequence (Q03181 whole entry): T2 sequence (whole entry)

[10] = target: T1, Peroxisome proliferator-activated receptor gamma (Homo sapiens); assay: Agonist activity at PPAR gamma (unknown origin) transfected in HEK293 cells at 0.1 to 100 uM after 24 hrs by DR-1 luciferase reporter gene assay; type: cell-based
[11] = target: T4, Peroxisome proliferator-activated receptor delta; assay: Agonist activity at PPAR delta (unknown origin)
[12] = target: T4, Peroxisome proliferator-activated receptor delta; assay: Agonist activity at human PPAR delta by cell based cotransfection assay
[13] = target: PPAR delta/gamma (Homo sapiens) (UniProt P37231+Q03181); assay: Ratio of EC50 for human PPAR gamma to EC50 for human PPAR delta
Homo sapiens = species: Homo sapiens; assay: Ratio of EC50 for human PPAR alpha to EC50 for human PPAR delta

| Structure (SMILES) | Survival (PC-12 [1]) | viability at 3 µM (PC-12 [2]) | Activity [3] | Activity [6] | Activity [8] | EC50 [9] | Activity [10] | further results |
| --- | --- | --- | --- | --- | --- | --- | --- | --- |
| CCOC(=O)Nc1ccc(NCc2ccc(F)cc2)nc1N [FLUPIRTINE] | 82% | 80% | – | – | – | – | – | – |
| CN(CCOc1ccc(CC2SC(=O)NC2=O)cc1)c1ccccn1 (stereo not given) | – | – | Active | – | – | – | – | – |
| CCOP(=O)(CCO)OCC | 78% | 116% | inactive | inactive | Active | 112 nM | inactive | Activity (PC-12 [4]): Active; Activity [5]: inactive; Activity [7]: inactive |
| C[C@@H]1CN(c2ccc(OC(F)(F)F)cc2)C[C@H](C)N1S(=O)(=O)c1cccc2c1C[C@@H](C(=O)O)C2 | – | – | – | – | – | – | – | EC50 [11]: 1.5 nM |
| CCOC(=O)CCO | – | – | Active | Active | Active | > 1000 nM | Active | – |
| O=P(O)(O)CCO | – | – | inactive | inactive | – | > 100000 nM | inactive | – |
| O=P(O)(OCO)OCCC#CC#CCCCCCC/C=C/I | – | – | – | – | – | > 10000 nM | – | EC50 [12]: > 10 nM |
| Cc1cccc(Nc2cc(Cl)nc(SCC(=O)O)n2)c1C | – | – | – | Active | – | – | – | – |
| O=P(O)(CCO)OCCC#CC#CCCCCCC/C=C/I | – | – | – | – | – | 24 nM | – | Ratio EC50 [13]: > 200; Ratio EC50 (Homo sapiens): > 200; EC50 [12]: 23.7 nM |
| CCOP(=O)(O)CCO | 77% | 110% | inactive | inactive | Active | 78 nM | inactive | Activity (PC-12 [4]): Active; Activity [5]: inactive; Activity [7]: inactive |
